Assay results published in US20260256799A1, “INHIBITORS FOR TREATING SOLID TUMOURS” (UNIVERSITY OF SOUTHAMPTON, priority 2023, published 2026).

Tests used:
[1] = monotherapy, dose escalation phase 1; cited from earlier work
[2] = system: HFFF2 fibroblasts; test: TGF-β1-induced myofibroblast differentiation of fibroblasts (Western blotting, immunofluorescence, Q-RT-PCR, collagen gel contraction); assay type: cell-based, human
Procedure: Human NSCLC cell line H441, HNSCC SCC25, murine cancer cell line TC-1 (lung), MC38 (colon) and human fetal foreskin fibroblasts HFFF2 were purchased from European Collection of Cell Cultures (Public Health England) or ATCC; HNSCC 5PT [32] were provided by l. Mackenzie (Queen Mary University of London, UK). HEK-293T cells and IMR90 lung fibroblasts were provided by Jesus Gil (Imperial College, London, UK). SCC25 were grown in Ham's F12:DMEM (1:1 ratio) medium with 10% FBS (Calbiochem) and 292 μg/ml L-Glutamine. 5PT were cultured in keratinocyte growth medium. HEK-293T, H441, MC38, HFFF2, IMR90 and primary fibroblasts were grown in DMEM supplemented with 10% FBS and 292 μg/ml L-Glutamine. Primary fibroblasts were isolated as previously used at early passage (p1-10). C57BL/6 murine normal lung and colon fibroblasts (MLF and MCF respectively) were grown at 3% oxygen. TC-1 were cultured in RPMI supplemented with 10% FBS and 292 μg/ml L-Glutamine. All cell cultures were routinely tested for mycoplasma contamination. All cells were cultured using standard cell culture plates/flasks (Corning). HFFF2 or IMR90 cells were transfected with 25 μM On-Target pool siRNA (Thermo Scientific/Dharmacon) using Oligofectamine reagent (Life Technologies) as described. Stable knockdown was performed using retro/lentiviral mediated transduction of shRNA plasmids, as previously described followed by cell selection using 1 μg/ml puromycin for 5-7 days. NOX4-inducible HEK-293 cells (kindly provided by Vincent Jaquet) were treated with 1 μg/ml doxycycline. Wild type and mutant (C2991L) ATM over-expression was carried out transfecting HFFF2 with Viafect (Promega) according to manufacturer's instructions and selected for 10 days with 4 mg/ml G418. p-Retrosuper-shATM (ATM #1:912) and pCDNA3.1-Flag-mut-ATM (C2991L; pTP1625 clone) were kindly provided by Yosef Shiloh and Tanya Paull respectively. pLKO.1 murine shATM (TRCN0000012643) and pCDNA3.1-Flag-wt-ATM (31985) were purchased from Sigma and Addgene respectively. 2 ng/ml TGF-3 (TGF-β1; R&D Systems; for 3 days) was used to induce myofibroblast differentiation. 10 ng/ml IL-1pR (R&D Systems) for 72 hours was used to induce iCAF differentiation. […] All the inhibitors were resuspended in DMSO. To trigger DDR activation and/or cell stress HFFF2 were either irradiated with 2-100Gy using 350Kv X-Ray Irradiation System (Faxitron), or treated with 100 ng/ml Neocarzinostatin for 2 hours (NCS; Sigma), with 2-10 mM H2O2(Fisher Scientific) or with 5 μg/ml Cisplatin (Sandoz) for 30 minutes.
5×10^3 HFFF2 were plated on permanox chamber slides (Thermo Scientific) and treated as described in the figure legends. Immunostaining was performed as previously. DAPI was used as nuclear counterstain and coverslips were mounted using fluorescent mounting solution (Dako). Images were taken using an Olympus IX81 fluorescence microscope and Xcellence program. DNA Damage foci were quantified from at least 8 non-overlapping FoV with ~300 cells in total per condition. Kruskall-Wallis statistical test was used to indicate the presence of a different distribution per time points in each group of foci. For collagen 1A1 deposition, 5×10^3 HFFF2 or MLF were seeded into chamber slides and treated with TGF-β1±inhibitors for a week (treated day 1 & day 4). Decellularisation was performed using 0.25M NH4OH in 50 mM Tris at 37° C. for 30 minutes and slides fixed with ice-cold 100% methanol at −20° C. followed by a blocking step. The remainderwas performed as previously described. SMA and Collagen 1A1 quantification was performed using Fiji. High resolution imaging of mouse tumours was carried out using an Axioscan.Z1 scanner (Zeiss).

[3] = CCT241533 1.5 μM + TGF-β1 72 hours, HFFF2
[4] = CCT241533 1.5 μM + TGF-β1, HFFF2

## CC(C)n1c(=O)n(C)c2cnc3cc(F)c(-c4ccc(OCCCN5CCCCC5)nc4)cc3c21 [AZD1390]
[1]
  adverse effects: not yet reporting to be associated with adverse effects

## COc1cc2nc(-c3cc(F)ccc3O)nc(N[C@@H]3CNC[C@H]3C(C)(C)O)c2cc1OC [CCT241533]
[2]; [3]
  TGF-β1-dependent FnEDA expression: suppresses
  TGF-β1-dependent SMA expression: suppresses
[2]; [4]
  SMA-positive stress fiber formation: suppresses
  collagen deposition: suppresses
